The record followed here is US9549965B2, “Pharmaceutical composition for treating a microbial infection” (HELPERBY THERAPEUTICS LIMITED, priority 2010, dated 2017).

“And” between values parts separate entries of the source, which are not always exact repeats. Equal entries are not always repeated. Structures can show the parent of a compound that is named as a salt.

Experiment [1] has as its system log phase E. coli. Kind of experiment: MIC against log phase E. coli. The class given is cell-based, Escherichia coli. On the procedure:
(§1) Escherichia coli K12; Gram negative; Reference strain.
(§2) The above-described overnight cultures were diluted (1000×) with iso-sensitest broth. The cultures were then incubated at 37° C. with shaking for 1-2 hours to reach log CFU 6, which served as log phase cultures.
(§3) The bactericidal activity of the drugs against log phase cultures were determined by minimal inhibitory concentration (MIC) of the drugs, which is defined as the lowest concentration which inhibits visible growth. Different concentrations of each test compound were incubated with the log-phase cultures in 96 well plates for 24 hours. Bactericidal activity was then examined by taking a spectrophotometer reading (using a plate reader) at 405 nm.

Another experiment relates to stationary phase E. coli. The experiment in a line: Bactericidal activity against stationary phase E. coli (CFU counts). The class given is cell-based, Escherichia coli. Particulars: for log reduction at 6.25 µg/mL / log reduction at 12.5 µg/mL / log reduction at 25 µg/mL: Escherichia coli, read-out: Log kill. As for the experimental part: as §1
(§4) Bacteria were grown in 10 ml of nutrient broth (No. 2 (Oxoid)) overnight at 37° C., with continuous shaking at 120 rpm. The overnight cultures were diluted (1000×) in 100 ml of growth medium and then incubated without shaking for 10 days. Viability of the bacteria was estimated by colony forming unit (CFU) counts at 2 hour intervals at the first 24 hours and at 12-24 hours afterwards. From serial 10-fold dilutions of the experimental cultures, 100 μl samples were added to triplicate plates of nutrient agar plates (Oxoid) and blood agar plates (Oxoid). Colony forming units (CFU) were counted after incubation of the plates at 37° C. for 24 hours.
(§5) Cultures incubated for more than 24 hours are in the stationary phase. For drug screening, 5-6 day old stationary phase cultures were used.
(§6) Different concentrations of each test compound were incubated with stationary phase cultures (5-6 day cultures) in 96 well plates for 24 or 48 hours. Bactericidal activity was then determined by taking CFU counts of the resulting cultures, as described above.

The subject of experiment [2] is log phase E. coli. The experiment in a line: Chequerboard analysis with polymyxin E against log phase E. coli. Format: cell-based, Escherichia coli. Conditions: for MIC: Escherichia coli. On the procedure:
as §1, §2, §3

Experiment [3] relates to stationary phase S. aureus. Kind of experiment: Bactericidal activity against stationary phase S. aureus (CFU counts). Format: cell-based, Staphylococcus aureus. Conditions: Staphylococcus aureus, read-out: Log Kill; for log reduction at 6.25 µg/mL: 6.25 μg/ml; for log reduction at 12.5 µg/mL: 12.5 μg/ml; for log reduction at 25 µg/mL: 25 μg/ml. On the procedure:
Staphylococcus aureus (Oxford strain); Gram positive; Reference strain.
as §4, §5, §6

In experiment [4] the test system is NDM-1 Klebsiella pneumoniae. Kind of experiment: Chequerboard analysis with colistin against NDM-1 Klebsiella pneumoniae. Format: cell-based.
Setting [5] is: Escherichia coli, read-out: MIC.

As for `CCCCCCc1ccc(O)cc1O.Nc1c2ccccc2nc2ccccc12` [Acrisorcin], in the experiment with log phase E. coli [1], the MIC (in general, the least concentration at which growth counts as inhibited) is listed as “— (— signifies MIC higher than 50 μg/ml)”. The Log Kill in the experiment with stationary phase E. coli (6.25 μg/ml), in the experiment on stationary phase E. coli (12.50 μg/ml) and in the experiment with stationary phase E. coli (25.00 μg/ml) was 6.14 each time.
Take `COc1cccc2c1C(=O)c1c(O)c3c(c(O)c1C2=O)C[C@@](O)(C(=O)CO)C[C@@H]3O[C@H]1C[C@H](N)[C@H](O)[C@H](C)O1` [Doxorubicin]: in the experiment with log phase E. coli [1] (setting [5]), the MIC was greater than 50 µg/mL. For the same compound, the log reduction at 6.25 µg/mL in the experiment on stationary phase E. coli (6.25 μg/ml) came out at 6.14. The log reduction at 12.5 µg/mL in the experiment with stationary phase E. coli (12.50 μg/ml) was 6.14. The log reduction at 25 µg/mL with stationary phase E. coli (25.00 μg/ml) was 6.14.
Turning to `CC(COc1ccccc1)N(CCCl)Cc1ccccc1` (centres unmarked) [HT00800157, Phenoxybenzamine Hydrochloride], the MIC in the experiment on log phase E. coli [2] (alone) was greater than 64 µg/mL; in the experiment with log phase E. coli [2] (in combination with polymyxin E at 0.06 μg/ml), 64 µg/mL; in the experiment with log phase E. coli [2] (in combination with polymyxin E at 0.25 μg/ml), 1 µg/mL. Also, the spectrophotometer reading in the experiment on log phase E. coli [2] (HT00800157 1 μg/ml alone) is listed as 1.52; in the experiment with log phase E. coli [2] (HT00800157 2 μg/ml alone), 1.53; with log phase E. coli [2] (HT00800157 4 μg/ml alone), 1.60; in the experiment on log phase E. coli [2] (HT00800157 8 μg/ml alone), 1.56; in the experiment with log phase E. coli [2] (HT00800157 16 μg/ml alone) it was 1.56; in the experiment on log phase E. coli [2] (HT00800157 32 μg/ml alone), 1.57. Moreover, the spectrophotometer reading with log phase E. coli [2] (HT00800157 64 μg/ml alone) turned out to be 1.60.
With `Oc1ccc(O)cc1` [Hydroquinone], the results for the log reduction at 6.25 µg/mL (in experiment [3]; with stationary phase E. coli (6.25 μg/ml)) were 6.15 and 6.14, respectively. Moreover, the log reduction at 12.5 µg/mL in experiment [3] stood at 6.15; with stationary phase E. coli (12.50 μg/ml), 6.14. Also, the log reduction at 25 µg/mL in experiment [3] came to 6.15; with stationary phase E. coli (25.00 μg/ml), 6.14. In addition, the MIC in the experiment on log phase E. coli [1] (setting [5]) was greater than 50 µg/mL.
Regarding `COC(=O)C1=C(C)NC(C)=C(C(=O)OCC(C)C)C1c1ccccc1[N+](=O)[O-]` (centres unmarked) [Nisoldipine], in experiment [3], the log reduction at 6.25 µg/mL is 0, the log reduction at 12.5 µg/mL worked out at 6.15 and the log reduction at 25 µg/mL was 6.15. Besides, the MIC in the experiment on log phase E. coli [1] (setting [5]) is greater than 50 µg/mL.
As to `CCN(CC)CCCC(C)Nc1c2ccc(Cl)cc2nc2ccc(OC)cc12` (centres unmarked) [Quinacrine hydrochloride], the minimum inhibitory concentration (MIC) in the experiment on log phase E. coli [1] (setting [5]) was greater than 50 µg/mL. Besides, the log reduction at 6.25 µg/mL in the experiment with stationary phase E. coli (6.25 μg/ml) worked out at 1.27. For the same compound, in the experiment with stationary phase E. coli (12.50 μg/ml), the log reduction at 12.5 µg/mL turned out to be 2.14. Moreover, the log reduction at 25 µg/mL in the experiment with stationary phase E. coli (25.00 μg/ml) came to 6.14.
Turning to `Clc1ccc(C(Cn2ccnc2)OCc2ccsc2Cl)c(Cl)c1` (centres unmarked) [Tioconazole], in experiment [3], the log reduction at 6.25 µg/mL was 0, the log reduction at 12.5 µg/mL was 6.15 and the log reduction at 25 µg/mL was determined as 6.15.
For `CN(C)CCOc1ccc(/C(=C(/CCCl)c2ccccc2)c2ccccc2)cc1` [Toremifene citrate], in experiment [3], the log reduction at 6.25 µg/mL stood at 6.15, the log reduction at 12.5 µg/mL came to 6.15 and the log reduction at 25 µg/mL came to 6.15.
Consider `CN1CCN(CCCN2c3ccccc3Sc3ccc(C(F)(F)F)cc32)CC1` [Trifluoperazine hydrochloride], for which the spectrophotometer reading in experiment [4] (trifluoperazine hydrochloride 0.25 mg/L alone) came out at 0.96; in experiment [4] (trifluoperazine hydrochloride 0.5 mg/L alone), 0.95; in experiment [4] (trifluoperazine hydrochloride 1 mg/L alone) it was 0.94; in experiment [4] (trifluoperazine hydrochloride 2 mg/L alone) it was 0.96; in experiment [4] (trifluoperazine hydrochloride 4 mg/L alone), 0.95; in experiment [4] (trifluoperazine hydrochloride 8 mg/L alone), 0.97. Besides, the spectrophotometer reading is on record as 0.98 in experiment [4] (trifluoperazine hydrochloride 16 mg/L alone); 0.95 in experiment [4] (trifluoperazine hydrochloride 32 mg/L alone); 0.77 in experiment [4] (trifluoperazine hydrochloride 64 mg/L alone); 0.87 in experiment [4] (trifluoperazine hydrochloride 128 mg/L alone); 1.33 in experiment [4] (trifluoperazine hydrochloride 256 mg/L alone). Besides, the log reduction at 6.25 µg/mL in experiment [3] is 0; in the experiment on stationary phase E. coli (6.25 μg/ml) it was -0.12. Moreover, the log reduction at 12.5 µg/mL in experiment [3] came out at 2.22; with stationary phase E. coli (12.50 μg/ml) it was 6.14. Moreover, the log reduction at 25 µg/mL in experiment [3] was 6.03; in the experiment with stationary phase E. coli (25.00 μg/ml) it was 6.14. Also, the MIC with log phase E. coli [1] (setting [5]) worked out at 20 µg/mL.
With Polymyxin E (Colistin), the spectrophotometer reading in experiment [4] (colistin 0.5 mg/L alone, Table 6) was determined as 1.08; in experiment [4] (colistin 0.5 mg/L alone, Table 7) it was 0.98; in experiment [4] (colistin 0.5 mg/L alone, Table 8), 0.94; in experiment [4] (colistin 0.5 mg/L alone, Table 9) it was 1.12; in experiment [4] (colistin 0.5 mg/L alone, Table 10) it was 1.14; in experiment [4] (colistin 0.5 mg/L alone, Table 11), 0.96. The spectrophotometer reading is listed as 1.03 in experiment [4] (colistin 1 mg/L alone, Table 6); 1.02 in experiment [4] (colistin 1 mg/L alone, Table 7); 0.94 in experiment [4] (colistin 1 mg/L alone, Table 8); 1.13 in experiment [4] (colistin 1 mg/L alone, Table 9); 1.12 in experiment [4] (colistin 1 mg/L alone, Table 10); 0.93 in experiment [4] (colistin 1 mg/L alone, Table 11). In addition, the spectrophotometer reading in experiment [4] (colistin 2 mg/L alone, Table 6) amounted to 1.05; in experiment [4] (colistin 2 mg/L alone, Table 7) it was 0.95; in experiment [4] (colistin 2 mg/L alone, Table 8), 0.87; in experiment [4] (colistin 2 mg/L alone, Table 9), 1.07; in experiment [4] (colistin 2 mg/L alone, Table 10), 1.09; in experiment [4] (colistin 2 mg/L alone, Table 11), 0.91. Moreover, the spectrophotometer reading is given as 0.34 in experiment [4] (colistin 4 mg/L alone, Table 6); 0.87 in experiment [4] (colistin 4 mg/L alone, Table 7); 0.54 in experiment [4] (colistin 4 mg/L alone, Table 8); 0.80 in experiment [4] (colistin 4 mg/L alone, Table 9); 0.89 in experiment [4] (colistin 4 mg/L alone, Table 10); 0.90 in experiment [4] (colistin 4 mg/L alone, Table 11). In addition, the spectrophotometer reading was 0.82 in experiment [4] (colistin 8 mg/L alone, Table 6); 0.44 in experiment [4] (colistin 8 mg/L alone, Table 7); 0.57 in experiment [4] (colistin 8 mg/L alone, Table 8); 0.68 in experiment [4] (colistin 8 mg/L alone, Table 9); 0.63 in experiment [4] (colistin 8 mg/L alone, Table 10); 0.53 in experiment [4] (colistin 8 mg/L alone, Table 11). Moreover, the spectrophotometer reading in experiment [4] (colistin 16 mg/L alone, Table 6) is 0.78; in experiment [4] (colistin 16 mg/L alone, Table 7) it was 0.53; in experiment [4] (colistin 16 mg/L alone, Table 8), 0.39; in experiment [4] (colistin 16 mg/L alone, Table 9) it was 0.40; in experiment [4] (colistin 16 mg/L alone, Table 10), 0.69; in experiment [4] (colistin 16 mg/L alone, Table 11), 0.48. The spectrophotometer reading in experiment [4] (colistin 32 mg/L alone, Table 6) turned out to be 0.33; in experiment [4] (colistin 32 mg/L alone, Table 7), 0.36; in experiment [4] (colistin 32 mg/L alone, Table 8), 0.41; in experiment [4] (colistin 32 mg/L alone, Table 9), 0.39; in experiment [4] (colistin 32 mg/L alone, Table 10), 0.40; in experiment [4] (colistin 32 mg/L alone, Table 11), 0.41. The spectrophotometer reading in the experiment on log phase E. coli [2] (polymyxin E 0.0019 μg/ml alone) is 1.53; in the experiment on log phase E. coli [2] (polymyxin E 0.0039 μg/ml alone) it was 1.55; in the experiment on log phase E. coli [2] (polymyxin E 0.0078 μg/ml alone), 1.55; in the experiment with log phase E. coli [2] (polymyxin E 0.015625 μg/ml alone), 1.53; with log phase E. coli [2] (polymyxin E 0.03125 μg/ml alone), 1.42; with log phase E. coli [2] (polymyxin E 0.0625 μg/ml alone), 1.52. Also, the spectrophotometer reading was found to be 1.48 in the experiment with log phase E. coli [2] (polymyxin E 0.125 μg/ml alone); 1.25 in the experiment on log phase E. coli [2] (polymyxin E 0.25 μg/ml alone); 0.49 in the experiment on log phase E. coli [2] (polymyxin E 0.5 μg/ml alone); 0.49 with log phase E. coli [2] (polymyxin E 1 μg/ml alone); 0.50 in the experiment on log phase E. coli [2] (polymyxin E 2 μg/ml alone). In addition, the “Colistin MIC” value in experiment [4] (colistin alone) was 32 µg/mL and 16 µg/mL; in experiment [4] (combined with 32 mg/L of suloctidil), 1 µg/mL; in experiment [4] (combined with 64 mg/L of mefloquine), 0.5 µg/mL.
